# Data from publication PMC8148049, “Fluorogenic Trp(redBODIPY) cyclopeptide targeting keratin 1 for imaging of aggressive carcinomas” (Chemical Science, 2019).
# Values joined by “and” are separate entries in the source; they are usually repeats but may differ in a detail not shown here. Identical values can stand only once. *1 amine or outer side, *2 acyl side, *3 side chain or, on linkers, in order; H or OH if unused. Where a SMILES comes first, the peptide text is derived from it. [ ]: non-standard residue; d: D form. X1 = CC1=CC(C)=[N+]2C1=C(c1cccc(-c3[nH]c4ccccc4c3C[C@H](N[*:1])C(=O)[*:2])c1)c1ccc(-c3ccc(C)s3)n1[B-]2(F)F; Nle = CCCC[C@H](N)C(=O)O
# Columns and labels:
# [1] = test system: Protease XIV (from Streptomyces Griseus); assay: Protease stability assay (protease cocktail, HPLC-MS monitoring); type: in vitro ADME; conditions: Protease XIV 5 μg mL-1 in PBS-citrate buffer pH 7.1, 37 °C, peptide 500 µM (from 5 mM DMSO stock), HPLC-MS with detection at 280 nm
# Experimental: Given that proteases are abundant enzymes at tumour sites, we also investigated the potential degradation of the cyclopeptides 2 (unlabelled) and 8 [Trp(redBODIPY)-labelled] when subjected to strong proteolytic environments. We incubated both peptides with a commercially available protease cocktail at 37 °C and recorded their chemical stability by HPLC-MS over time. […] We also observed that the incorporation of the amino acid Trp(redBODIPY) into the structure of the cyclopeptide 2 slightly augmented its resistance to proteases, likely due to the inherent properties of unnatural amino acids.
# 5. Experimental Protocols for Biological Assays […]
# (§1) Protease stability assays
# (§2) The chemical stability of the peptides was assessed in the presence of Protease XIV (from Streptomyces Griseus) in PBS-citrate buffer (pH 7.1) at 37 °C. First, a stock of 5 μg mL-1 of the protease cocktail in the buffer was prepared. Initially, a concentrated 1 mg mL−1 solution was obtained by weighing 1.1 mg of the protease and dissolving it in 1.1 mL of buffer, and afterwards diluting it down to the desired 5 μg mL-1 stock. Then, 5 µL of the peptides (5 mM in DMSO) were diluted with 45 µL of the protease cocktail to obtain a final peptide concentration of 500 µM. Peptides were vortexed, covered in aluminium foil and shaken at 37°C for 2 h or 24 h. Aliquots (25 µL) were taken, proteins were precipitated by microcentrifugation at 4°C, and supernatants were collected for HPLC-MS with detection at 280 nm. […]
# HeLa cells = assay: Cell viability assay (TACS MTT Cell Proliferation assay); type: cell-based; conditions: different concentrations of peptide, 2 h at 37 °C, vs untreated control, means ± s.d. (n = 4), p > 0.05
# Experimental: 5. Experimental Protocols for Biological Assays
# Spectroscopic characterisation
# Spectral properties were measured in a BioTek Cytation 3 spectrophotometer. Absorbance and emission spectra were determined in the range of 400–700 nm (every 1 nm) at the indicated concentrations. Environmental sensitivity was measured by comparing the emission in PBS or in presence of phosphatidylcholine: cholesterol (7:1) liposomes (3.75 mg mL-1 PC).
# Fluorescence emission was determined on a 384-well plate using a BioTek Cytation 3 spectrophotometer as indicated (excitation at 520 nm, 530-700 nm emission range, every 1 […]
# as §1
# as §2, with “h.” for “h. Aliquots (25 µL) were taken, proteins were precipitated by microcentrifugation at 4°C, and supernatants were collected for HPLC-MS with detection at 280 nm.”
# Cell viability of HeLa cells was determined using the TACS® MTT Cell Proliferation assay (Trevigen). […]
SMILES,fluorescence increase in hydrophobic medium (fluorogenic),chemical stability 2 h [1],chemical stability 24 h [1],Viability of HeLa cells (HeLa cells)
CCCC[C@@H]1NC(=O)[C@H](Cc2c(-c3cccc(C4=C5C(C)=CC(C)=[N+]5[B-](F)(F)n5c4ccc5-c4ccc(C)s4)c3)[nH]c3ccccc23)NC(=O)[C@H](CC(C)C)NC(=O)[C@H](Cc2ccccc2)NC(=O)[C@@H](CCCCN)NC(=O)[C@H](CCC(N)=O)NC(=O)[C@H](Cc2ccc(O)cc2)NC(=O)[C@H](C)NC(=O)[C@H](C)NC(=O)[C@H](CCC(=O)O)NC1=O [compound 8] (cyclo(AAYQ[dK]FL[X1][Nle]E)),< 70 fold and 70 fold,> 95%,82%,Non-significant differences
"CCCC[C@@H]1NC(=O)[C@H](Cc2c[nH]c3ccccc23)NC(=O)[C@H](CC(C)C)NC(=O)[C@H](Cc2ccccc2)NC(=O)[C@@H](CCCCN)NC(=O)[C@H](CCC(N)=O)NC(=O)[C@H](Cc2ccc(O)cc2)NC(=O)[C@H](C)NC(=O)[C@H](C)NC(=O)[C@H](CCC(=O)O)NC1=O [compound 2, reference compound] (cyclo(AAYQ[dK]FLW[Nle]E))",–,65%,50%,–
